# Bridge positions count the residues as written; N and C are the ends. Square brackets hold non-standard residues; d marks the D form. Ends that are not written are not given here. I, II: the chains in the order shown. Gla = N[C@@H](CC(C(=O)O)C(=O)O)C(=O)O
# Key:
# human IR-B = human IR-B (Homo sapiens, UniProt P06213); assay: cell-based
# [1] = target: human insulin receptor isoform B (hIR-B) (Homo sapiens, UniProt P06213); assay: biochemical; format: binding
# [2] = system: STZ-induced hyperglycemic mice; settings: mouse, in vivo
# Sequence of human IR-B (P06213 28-758 limits assumed): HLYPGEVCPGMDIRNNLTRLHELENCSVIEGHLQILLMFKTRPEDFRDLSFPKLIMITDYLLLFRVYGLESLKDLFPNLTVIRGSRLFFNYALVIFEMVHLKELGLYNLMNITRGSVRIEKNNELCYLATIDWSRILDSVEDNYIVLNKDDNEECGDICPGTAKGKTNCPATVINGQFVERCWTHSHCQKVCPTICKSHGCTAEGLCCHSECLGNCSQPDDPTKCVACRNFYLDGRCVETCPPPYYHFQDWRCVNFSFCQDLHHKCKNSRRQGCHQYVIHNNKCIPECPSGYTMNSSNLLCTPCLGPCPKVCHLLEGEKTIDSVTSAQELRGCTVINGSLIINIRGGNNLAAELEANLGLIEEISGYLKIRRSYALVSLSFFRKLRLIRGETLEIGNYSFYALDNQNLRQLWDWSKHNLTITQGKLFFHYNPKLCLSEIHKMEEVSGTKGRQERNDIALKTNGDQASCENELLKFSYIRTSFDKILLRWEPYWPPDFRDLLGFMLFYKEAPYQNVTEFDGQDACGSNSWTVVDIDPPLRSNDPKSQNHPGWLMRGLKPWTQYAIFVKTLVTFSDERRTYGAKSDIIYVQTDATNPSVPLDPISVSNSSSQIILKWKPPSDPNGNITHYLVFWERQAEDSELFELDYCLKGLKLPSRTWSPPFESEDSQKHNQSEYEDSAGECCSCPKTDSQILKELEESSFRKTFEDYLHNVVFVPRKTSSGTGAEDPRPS
# Sequence of human IR-B (P06213 763-1382 partner limits assumed): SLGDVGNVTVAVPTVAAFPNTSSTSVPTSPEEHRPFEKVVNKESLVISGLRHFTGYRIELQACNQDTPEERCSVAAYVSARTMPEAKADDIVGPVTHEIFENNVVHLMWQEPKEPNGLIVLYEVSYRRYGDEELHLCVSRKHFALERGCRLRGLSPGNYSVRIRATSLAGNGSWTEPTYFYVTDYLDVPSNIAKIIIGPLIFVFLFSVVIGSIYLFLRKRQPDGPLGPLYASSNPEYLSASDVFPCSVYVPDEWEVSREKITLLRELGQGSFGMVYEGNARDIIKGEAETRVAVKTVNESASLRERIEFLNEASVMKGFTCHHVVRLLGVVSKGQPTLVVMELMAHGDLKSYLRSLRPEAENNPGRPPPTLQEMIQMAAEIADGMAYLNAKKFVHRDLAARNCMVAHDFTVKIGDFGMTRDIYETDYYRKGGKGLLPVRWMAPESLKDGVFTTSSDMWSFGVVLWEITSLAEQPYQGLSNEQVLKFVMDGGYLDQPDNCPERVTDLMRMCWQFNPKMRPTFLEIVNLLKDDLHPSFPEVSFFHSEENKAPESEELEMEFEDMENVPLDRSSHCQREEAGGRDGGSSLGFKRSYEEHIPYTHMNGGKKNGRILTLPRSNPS
# Sequence of human insulin receptor isoform B (hIR-B) (P06213 28-758 limits assumed): as the sequence (P06213 28-758 limits assumed) above
# Sequence of human insulin receptor isoform B (hIR-B) (P06213 763-1382 partner limits assumed): as the sequence (P06213 763-1382 partner limits assumed) above
substance,measurement,setting,value
"I: NSDTPKHRCGSELADQYVQLCH-NH2 / II: GIV[Gla]VCCDNPCTVATLRTFCH-OH (disulfide I:9-II:7, I:21-II:20, II:6-II:11) [Con-Ins G3]",potency against the human IR-B compared with Con-Ins G1 (in words),human IR-B,more than one order of magnitude less potent
"I: NSDTPWNRCGSQITDSYR[Gla]LCPH / II: GVV[Gla]HCCKRACSNA[Gla]FMQFC-NH2 (disulfide I:9-II:7, I:21-II:20, II:6-II:11) [Con-Ins T2]",EC50,human IR-B,15.5 nM
same,IC50,[1],31.8 nM
"I: SDSGTTLVRRRLCGS[Gla]LVTYLGELCLGN / II: GIV[Gla]DCCYNDCTDEKLKEYCHTLQ-NH2 (disulfide I:13-II:7, I:25-II:20, II:6-II:11) [Con-Ins K1]",Reversal of hyperglycemia (in words),[2],effectively reversed hyperglycemia
same,"Blood glucose, starting value",[2]; SEM,404 (±25) mg/dL

# Source: publication PMC6372279 (eLife, 2019)
